In patent US8796176B2, “Pesticidal composition comprising an alpha-alkoxyphenyl acetic acid derivative and a neonicotinoid compound” (Sumitomo Chemical Company, Ltd, priority 2008, dated 2014):

System: Rhizoctonia solani
Assay: Cucumber seed treatment test against Rhizoctonia solani (Test Example 4)
Assay type: in vivo
Conditions: cucumber seeds, seventh day after dissemination
Protocol: 5: Diameter of maculation: >20 mm Incidence of disease=Σ(Evaluation index of leaves checked)×100/(Number of total leaves checked) “Equation 1” Control value=100(A−B)/A “Equation 2” A: Incidence of disease of plant in untreated area B: Incidence of disease of plant in treated area Generally, the control value expected for the case where the given two kinds of active ingredient compounds are mixed and used for the treatment, the so-called control value expectation is calculated from the following Colby's calculating equation. […] They were allowed to grow in a greenhouse while irrigated and the number of non-budding seeds was checked on the seventh day after the dissemination and the incidence of disease was calculated by Equation 4. The control value was calculated by Equation 2 based on the incidence of disease. […]

CNC(=O)C(OC)c1ccccc1COc1cc(C)ccc1C (racemic) [(1b)]
Actual control value (compound (1b) alone 10 g/Seed 100 kg): 35%

CN/C(=N\[N+](=O)[O-])NCc1cnc(Cl)s1 [Clothianidin, clothianidin]
Actual control value (clothianidin alone 200 g/Seed 100 kg): 4%
